What was measured:
[1] = tested on: EphA4; experiment: ephrin-A1-induced EphA4 clustering assay in cultured hippocampal neurons; format: cell-based; settings: dose of 50 μM
Description: FIG. 1. Inhibitory effect of small molecule compounds on EphA4 signaling. Inhibitory activity of 22 selected FDA-approved drugs in ephrin-A1-induced EphA4 clusters in cultured hippocampal neurons. n=4 neuronal cell cultures; *p<0.05 vs. Cont; unpaired Student's t-test.
The inhibitory activity of the 22 drugs listed in Table 1 was examined using an ephrin-A1-induced EphA4 clustering assay in cultured hippocampal neurons.

[2] = target: T1, extracellular domain of mouse EphA4 (interaction with ephrin-A1) (Mus musculus, UniProt Q03137); experiment: Dose-response ELISA of the EphA4/ephrin-A1 interaction; format: binding; settings: read-out: IC50, inhibition of interaction between extracellular domain of mouse EphA4 and ephrin-A1
T1 construct: the extracellular domain of mouse EphA4
T1 sequence (Q03137 20-547 limits assumed): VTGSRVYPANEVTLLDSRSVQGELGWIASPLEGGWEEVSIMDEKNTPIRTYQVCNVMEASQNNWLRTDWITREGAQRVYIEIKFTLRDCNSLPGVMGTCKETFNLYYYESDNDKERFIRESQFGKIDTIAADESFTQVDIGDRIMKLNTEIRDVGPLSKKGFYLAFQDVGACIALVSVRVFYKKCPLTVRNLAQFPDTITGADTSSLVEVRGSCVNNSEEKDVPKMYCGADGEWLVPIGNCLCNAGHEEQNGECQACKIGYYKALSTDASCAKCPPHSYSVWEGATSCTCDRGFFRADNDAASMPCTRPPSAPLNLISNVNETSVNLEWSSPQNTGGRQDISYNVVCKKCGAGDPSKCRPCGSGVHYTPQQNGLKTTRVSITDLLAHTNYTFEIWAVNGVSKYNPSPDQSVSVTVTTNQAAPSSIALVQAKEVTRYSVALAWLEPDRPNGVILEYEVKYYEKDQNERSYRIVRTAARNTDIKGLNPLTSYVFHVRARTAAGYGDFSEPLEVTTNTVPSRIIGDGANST
Description: FIG. 3. […] Dose-response curve of nilotinib against the interaction of mouse EphA4 with ephrin-A1.
Nilotinib is a kinase inhibitor that targets the following kinases: BCR-ABL, KIT, LCK, EPHA3, EPHA8, DDR1, DDR2, PDGFRB, MAPK11, and ZAK. Nilotinib is predicted to form hydrogen bonds with Q70 in the D-E loop and T104. It also has hydrophobic interactions with F154, V157, 1163, L166, A193, and V195.

Compound | inhibition of ephrin-A1-induced EphA4 clustering [1] | IC50 [2]
CN1CCC(=C2c3ccccc3C=Cc3ccccc32)CC1 [Cyproheptadine] | 30% | –
Cc1cn(-c2cc(NC(=O)c3ccc(C)c(Nc4nccc(-c5cccnc5)n4)c3)cc(C(F)(F)F)c2)cn1 [Nilotinib] | 30% | 70.7 µM
C[C@]12CC[C@H](O)CC1=CC[C@@H]1[C@@H]2CC[C@]2(C)C(c3cccnc3)=CC[C@@H]12 [abiraterone] | 30% | –
Retapamulin | 30% | –
